Assays:
[1] = tested on: NCIH460, HCT116, MDAMB231/U251; experiment: Anti-cancer screen, mean GI50 over the cell lines; assay type: cell-based; conditions: in µM
Procedure: (§1) Experimental drugs are screened for anti-cancer activity in three cell lines for their GI50, TGI and LC50 values (using five concentrations for each compound). The cell lines are maintained in DMEM containing 10% fetal bovine serum. 96 well micro titer plates are inoculated with cells in 100 μL for 24 h at 37° C., 5% CO2, 95% air and 100% relative humidity. 5000 HCT 116 cells/well, 5000 NCIH 460 cells/well and 5000 U251 cells/well are plated. A separate plate with these cell lines is also inoculated to determine cell viability before the addition of the compounds (T0).
(§2) Following 24-hour incubation, experimental drugs are added to the 96 well plates. Each plate contains one of the above cell lines and the following in triplicate: five different concentrations (0.01, 0.1, 1, 10 and 100 μM) of four different compounds, appropriate dilutions of a cytotoxic standard and control (untreated) wells. Compounds are dissolved in DMSO to make 20 mM stock solutions on the day of drug addition and frozen at −20° C. Serial dilutions of these 20 mM stock solutions are made in complete growth medium such that 100 μL of these drug solutions in medium, of final concentrations equaling 0.01, 0.1, 1, 10 and 100 μM can be added to the cells in triplicate. Standard drugs whose anti-cancer activity has been well documented and which are regularly used are doxorubicin and SAHA.
(§3) For To measurement, 24 hours after seeding the cells, 10 μL of 3-(4,5-Dimethyl-2-thiazolyl)-2,5-diphenyl-2H-tetrazolium (MTT) solution per well is added and incubation carried out for 3 hours at 37° C., 5% CO2, 95% air and 100% relative humidity, protected from light. Cells incubated with compounds for 48 hours are treated similarly except with the addition of 20 μL MTT solution per well and a subsequent incubation under the same conditions. After 3 hours of MTT incubation, well contents are aspirated carefully followed by addition of 150 μL DMSO per well. Plates are agitated to ensure solution of the formazan crystals in DMSO and absorbance read at 570 nm. […]

HCT 116 cells = experiment: Anti-cancer screen (MTT), HCT116; assay type: cell-based; conditions: Homo sapiens, HCT-116, HCT116 cells, 48 hours, MTT; for GI50: concentration to decrease % growth by 50%; for IC100: concentration to decrease % growth by 100%, read-out: HCT116 TGI; for LC50: concentration to decrease % growth by 150%
Procedure: as §1, §2, §3

NCIH 460 cells = experiment: Anti-cancer screen (MTT), NCIH460; assay type: cell-based; conditions: Homo sapiens, NCI-H460, NCIH460 cells, 48 hours, MTT; for GI50: concentration to decrease % growth by 50%; for IC100: concentration to decrease % growth by 100%, read-out: NCIH460 TGI; for LC50: concentration to decrease % growth by 150%
Procedure: as §1, §2, §3

MDAMB231/U251 = experiment: Anti-cancer screen (MTT), MDAMB231/U251; assay type: cell-based; conditions: MDAMB231/U251 cells, 48 hours; for GI50: concentration to decrease % growth by 50%; for IC100: concentration to decrease % growth by 100%, read-out: MDAMB231/U251 TGI; for LC50: concentration to decrease % growth by 150%
Procedure: as §1, §2, §3

[2] = tested on: HDAC (Mouse Liver Extract); experiment: Histone Deacetylase (HDAC) Inhibition Assay using Boc-Lys (Ac)-AMC Substrate; assay type: biochemical; conditions: mouse liver enzyme, NA = No Activity, in % (unit assumed)
Text: HDAC Activitv Screening: Histone Deacetylase (HDAC) Inhibition Assay using Boc-Lys (Ac)-AMC Substrate:
Inhibition of HDAC has been implicated to modulate transcription and to induce apoptosis or differentiation in cancer cells. The fluorometric assay provides a fast and fluorescence based method that eliminates radioactivity, extractions or chromatography, as used in traditional assays. The assay based on two steps. First, the HDAC fluorometric substrate, which comprises an acetylated lysine side chain, is incubated with a sample containing HDAC activity (Mouse Liver Extract). Deacetylation of the substrate sensitizes the substrate, in the second step; treatment with the Trypsin stop solution produces a fluorophore that can be easily analyzed using fluorescence plate reader.
Assay was done in 96 well black microplate and total volume of the assay is 100 ul. Mouse liver enzyme is diluted 1:6 with HDAC buffer. Enzyme cocktail made of 10 ul of diluted enzyme and 30 ul of HDAC buffer. 40 ul of enzyme cocktail dispensed into each well. 10 ul of different concentrations of inhibitor added in to each well, except enzyme control well. Preincubated the plate at 30° C. for 5 minutes. The HDAC reaction is started by adding 50 ul of HDAC substrate (Boc-Lys (Ac)-AMC Substrate) solution. Incubated the plate at 30° C. for 30 minutes. Adding 100 ul of Trypsin stop solution stops the reaction. The plate is incubated again at 30° C. for 20-30 minutes. The release of AMC is monitored by measuring the fluorescence at excitation wavelength of 365 or 360 nm and emission wavelength of 440 or 460 nm. Buffer and substrate alone kept for blank subtraction. (Dennis Wegener et al, Anal. Biochem, 321, 2003, 202-208).

Row | SMILES | Mean GI50 [1] | GI50 (HCT 116 cells) | IC100 (HCT 116 cells) | LC50 (HCT 116 cells) | GI50 (NCIH 460 cells) | IC100 (NCIH 460 cells) | LC50 (NCIH 460 cells) | GI50 (MDAMB231/U251) | IC100 (MDAMB231/U251) | LC50 (MDAMB231/U251) | HDAC Inhibition 1 μM [2] | HDAC Inhibition 10 μM [2]
1 | N[C@H](CO)C(=O)NCCCCCC(=O)N1CCN(CC(=O)Nc2nc3ccccc3s2)CC1 [Example 44] | >100 | > 100 µM | > 100 µM | > 100 µM | > 100 µM | > 100 µM | > 100 µM | > 100 µM | > 100 µM | > 100 µM | 5.45 | 1.79
2 | O=C(CN1CCN(C(=O)CCCCCNO)CC1)Nc1nc2ccccc2s1 [Example 26] | 15 | 8.6 µM | > 100 µM | > 100 µM | 9.5 µM | 92 µM | > 100 µM | 27 µM | 85 µM | > 100 µM | – | 4.5
3 | CC(=O)N(OCc1ccccc1)C(=O)CCCCCCC(=O)N1CCN(CC(=O)Nc2nc3c(C)cccc3s2)CC1 [Example 41] | 10.2 | 4.5 µM | 53 µM | > 100 µM | 26 µM | 100 µM | > 100 µM | 0.1 µM | 6.2 µM | > 100 µM | 0.6 | –
4 | CC(=O)SCCCCCC(=O)N1CCN(CC(=O)N2CCOCC2)CC1 [Example 19, 2-[4-(6-Thioacetylhexanoyl)piperazin-1-yl]-N-(morpholine)acetamide] | >100 | > 100 µM | > 100 µM | > 100 µM | > 100 µM | > 100 µM | > 100 µM | 57 µM | > 100 µM | > 100 µM | 18.82 | 51.25
5 | Cc1csc(NC(=O)CN2CCN(C(=O)CCCCCCC(=O)NO)CC2)n1 [Example 33, 8-{4-[2-(4-Methyl-1,3-thiazol-2-ylamino)-2-oxoethyl]piperazin-1-yl}-N-hydroxy-8-oxo octanamide] | 51.67 | 55 µM | > 100 µM | > 100 µM | 90 µM | > 100 µM | > 100 µM | 10 µM | 98 µM | > 100 µM | 50.09 | 92.38
6 | CC(=O)SCCCCC(=O)N1CCN(CC(=O)Nc2ncc([N+](=O)[O-])s2)CC1 [Example 9] | >100 | > 100 µM | > 100 µM | > 100 µM | > 100 µM | > 100 µM | > 100 µM | > 100 µM | > 100 µM | > 100 µM | 3.39 | 23.65

Source: US20070088043A1, “Novel HDAC inhibitors” (ORCHID RESEARCH LABORATORIES LIMITED., priority 2005, published 2007)
